Measurements as given in patent publication US9308268B2, “Solubilized benzoyl peroxyde acne” (TRANSDERMAL CORP, priority 2005, dated 2016).

Assays:
[1] = cited from earlier work
[2] = Solubility of benzoyl peroxide; format: physicochemical; conditions: by weight of the solubilized benzoyl peroxide topical formulation
Description: Benzoyl peroxide is a crystalline solid with a melting point of 103° C. to 106° C., and is insoluble in water.
Benzoyl peroxide is soluble in organic solvents, but most organic solvents are toxic and therefore not suitable for pharmaceutical/cosmetic use. Polar organic solvents such as acetone and ethanol are less toxic, but the flammability of these solvents as well as the ability of these solvents to irritate and strip the skin of its protective mantle limit their use in pharmaceutical or cosmetic compositions.
In contrast to prior art formulations of benzoyl peroxide, the benzoyl peroxide will actively go into solution at levels as high as 10% by weigh of the solubilized benzyl peroxide topical formulation. Furthermore, the solubilized benzoyl peroxide topical formulation is translucent and has increased efficacy.

In the case of O=C(OOC(=O)c1ccccc1)c1ccccc1 [Benzoyl peroxide], the “solubility in organic solvents” value ([1]; organic solvents) is listed as “soluble”, the solubility in water ([1]; water) is listed as “insoluble” and the “level at which benzoyl peroxide goes into solution” value [2] is listed as no more than 10%.
